# Measurements: US20210395327A1, “Growth Hormone-Releasing Hormone Antagonists and Uses Thereof” (United States Government As Represented By The Department …, priority 2019, published 2021)
# Non-standard residues stand in square brackets, D forms with d. Residues, ends and D or L forms follow the SMILES beside them. *: point of attachment. Phe(4-Cl) = N[C@@H](Cc1ccc(Cl)cc1)C(=O)O; hArg = N=C(N)NCCCC[C@H](N)C(=O)O; 12Ado = NCCCCCCCCCCCC(=O)O; Nle = CCCC[C@H](N)C(=O)O; Orn = NCCC[C@H](N)C(=O)O; Abu = CC[C@H](N)C(=O)O; PhAc = O=C(Cc1ccccc1)*
# Tests used:
# MX-1 breast cancer cells = test: In vitro cell viability, MX-1; type: cell-based, human; conditions: antagonist 5 μM for 72 h, cell proliferation assay; MIA602 = 1
# Experimental: (§1) The inhibitory effects of the various synthesized GHRH antagonists were tested in cell proliferation assays in various human cancer cell lines including stomach cancer (KATOIII, N87), colon cancer (HT-29), urothelial cancer (J82, RT4), pancreatic cancer (PANC-1, CFPAC-1), prostatic cancer (PC3), breast cancer (MX-1, HCC1806), ovarian cancer (SK-OV-3, OVCAR-3) and lung cancer (HCC827, H460).
# (§2) Cell culture. Human cancer cell lines including pancreatic (PANC-1 and CFPAC-1), lung (HCC827 and H460), stomach (NCI-N87 and KATOIII), urothelial (J82, RT4), prostatic (PC3), breast (MX-1 and HCC 1806), colorectal (HT-29), and ovarian (SK-OV-3 and OVCAR-3) were obtained from the American Type Culture Collection (ATCC) and cultured at 37° C. in a humidified 95% air/5% CO2 atmosphere in the medium recommended by ATCC.
# (§3) In vitro cell viability. Cell viability was analyzed as follows: cancer cells including pancreatic (PANC-1 and CFPAC-1), lung (HCC827 and H460), stomach (NCI-N87 and KATOIII), urothelial (J82, RT4), prostatic (PC3) and breast (MX-1 and HCC 1806), colorectal (HT-29) and ovarian (SK-OV-3 and OVCAR-3) were grown on 96 well plates to ˜60% confluence, the cells were starved for 24 h in culture medium containing 0.5% FBS. Cells were then treated with GHRH antagonists MIA602 AVR compounds at concentrations of 1, 2.5 or 5 μM, or vehicle (0.1% DMSO) in quintuplicates for 72 hours. The medium was replaced every 48 hours. Cell viability was measured using CellTiter 96 aqueous one solution kit (Promega). Inhibitory effects of tested AVR compounds in comparison to that of MIA602 are presented as inhibitory potency.
# (§4) Inhibitory effects of selected AVR compounds in comparison to that of MIA602 are presented as inhibitory potency (e.g., percentage of inhibition). […] The cell lines tested including lung cancer HCC827 (FIG. 2A), pancreatic cancer CFPAC-1 (FIG. 2B), stomach cancer N87 (FIG. 2C), colon cancer HT-29 (FIG. 2D), breast cancers MX-1 and HCC1806 (FIGS. 2 E, F). Based on the results of cell proliferation assay after cancer cells were treated with antagonist at concentration of 5 μM for 72H, the relative inhibitory potency of AVR antagonists in comparison to MIA-602 is summarized in Table 3 A and B. Over 60 AVR compounds were tested in 12 cancer cell lines.
# (§5) Based on the results of cell proliferation assay after cancer cells were treated with antagonist at concentration of 5 µM for 72H, * at concentration of 2 µM for 72 H.
# [1] = system: J82 urothelial cancer cells; test: In vitro cell viability, J82; type: cell-based, human; conditions: antagonist 5 μM for 72 h, cell proliferation assay; MIA602 = 1
# Experimental: as §1, §2, §3, §4
# [2] = system: KATOIII stomach cancer cells; test: In vitro cell viability, KATOIII; type: cell-based, human; conditions: antagonist 5 μM for 72 h, cell proliferation assay; MIA602 = 1
# In short: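 Cells grown to ~60% confluence, serum-starved 24 h in 0.5% FBS, then treated with antagonists at 1, 2.5 or 5 μM or vehicle (0.1% DMSO) in quintuplicate for 72 h, medium replaced every 48 h. Viability read by MTS-type CellTiter 96 AQueous One assay; expressed as inhibitory potency relative to MIA602.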
# [3] = system: PC3 prostatic cancer cells; test: In vitro cell viability, PC3; type: cell-based, human; conditions: antagonist 5 μM for 72 h, cell proliferation assay; MIA602 = 1
# Experimental: as §1, §2, §3
# (§6) Inhibitory effects of selected AVR compounds in comparison to that of MIA602 are presented as inhibitory potency (e.g., percentage of inhibition). […] The cell lines tested including lung cancer HCC827 (FIG. 2A), pancreatic cancer CFPAC-1 (FIG. 2B), stomach cancer N87 (FIG. 2C), colon cancer HT-29 (FIG. 2D), breast cancers MX-1 and HCC1806 (FIGS. 2 E, F). […]
# HCC827 lung cancer cells = test: In vitro cell viability, HCC827; type: cell-based, human; conditions: antagonist 5 μM for 72 h, cell proliferation assay; MIA602 = 1
# In short: (§7)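 Potency is reported as percent inhibition of viability compared with the reference antagonist MIA602, measured with CellTiter 96 aqueous one solution reagent. Serum-starved cells (0.5% FBS, 24 h) were treated for 72 h, mostly at 5 μM, otherwise 2 μM.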
# [4] = system: CFPAC-1 pancreatic cancer cells; test: In vitro cell viability, CFPAC-1; type: cell-based, human; conditions: antagonist 5 μM for 72 h, cell proliferation assay; MIA602 = 1
# In short: as §7
# [5] = system: RT4 urothelial cancer cells; test: In vitro cell viability, RT4; type: cell-based, human; conditions: antagonist 5 μM for 72 h, cell proliferation assay; MIA602 = 1
# Experimental: as §1, §2, §3, §6
# [6] = system: PANC-1 pancreatic cancer cells; test: In vitro cell viability, PANC-1; type: cell-based, human; conditions: antagonist 5 μM for 72 h, cell proliferation assay; MIA602 = 1
# Experimental: as §1, §2, §3, §4
# [7] = system: NCI-N87 stomach cancer cells; test: In vitro cell viability (CellTiter 96), N87; type: cell-based, human; conditions: antagonist 5 μM for 72 h, cell proliferation assay; MIA602 = 1
# Experimental: as §1, §2, §3, §4, §5
# [8] = system: HCC1806 breast cancer cells; test: In vitro cell viability, HCC1806; type: cell-based, human; conditions: antagonist 5 μM for 72 h, cell proliferation assay; MIA602 = 1
# Experimental: as §1, §2, §3, §4, §5
# [9] = molecular target: T1, membrane GHRH-receptors on human anterior pituitary cells (Homo sapiens, UniProt Q02643); test: Receptor binding, displacement of 125I-[His1,Nle27]-hGH-RH(1-32)NH2 on human pituitary membranes
# T1 construct: Human pituitary was purchased from the National Hormone and Peptide Program; tissue National Hormone and Peptide Program; host or cells: human pituitary (membrane fractions)
# T1 sequence (Q02643 23-423): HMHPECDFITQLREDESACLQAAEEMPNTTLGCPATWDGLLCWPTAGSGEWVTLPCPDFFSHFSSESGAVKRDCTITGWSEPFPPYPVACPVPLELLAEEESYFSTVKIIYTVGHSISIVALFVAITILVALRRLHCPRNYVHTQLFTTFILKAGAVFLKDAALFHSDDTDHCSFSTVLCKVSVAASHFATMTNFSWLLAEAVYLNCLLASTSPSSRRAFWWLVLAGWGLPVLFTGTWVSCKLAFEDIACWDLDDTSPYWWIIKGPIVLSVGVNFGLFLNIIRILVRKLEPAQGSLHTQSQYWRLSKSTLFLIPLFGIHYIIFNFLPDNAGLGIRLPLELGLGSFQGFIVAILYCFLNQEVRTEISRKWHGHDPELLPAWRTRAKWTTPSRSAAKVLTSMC
# In short: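 Membrane fractions from human pituitary; peptides displace 125I-[His1,Nle27]-hGH-RH(1-32)NH2. IC50 is the dose giving 50% inhibition of specific binding, from duplicate tubes. Relative affinity is the ratio of test IC50 to hGH-RH(1-29)NH2 IC50.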
smiles,measurement,setting,value
"CCCC[C@H](NC(=O)[C@@H](NC(=O)[C@H](CC(=O)O)NC(=O)[C@H](CCC(N)=O)NC(=O)[C@H](CC(C)C)NC(=O)[C@H](CC(C)C)NC(=O)[C@H](CCCN)NC(=O)[C@H](Cc1c[nH]cn1)NC(=O)[C@H](C)NC(=O)[C@H](CO)NC(=O)[C@H](CC(C)C)NC(=O)[C@H](CCC(N)=O)NC(=O)[C@H](CC)NC(=O)[C@H](CC(C)C)NC(=O)[C@@H](NC(=O)[C@H](CCCCN)NC(=O)[C@H](CCCNC(=N)N)NC(=O)[C@H](Cc1ccc(OC)cc1)NC(=O)[C@H](CCCNC(=N)N)NC(=O)[C@H](C)NC(=O)[C@@H](NC(=O)[C@H](Cc1ccc(Cl)cc1)NC(=O)[C@@H](NC(=O)[C@H](C)NC(=O)[C@H](CC(=O)O)NC(=O)[C@@H](CCCNC(=N)N)NC(=O)[C@H](Cc1ccc(O)cc1)NC(=O)CCCCCCCCCCCNC(=O)Cc1ccccc1)[C@@H](C)CC)[C@@H](C)O)C(C)C)[C@@H](C)CC)C(=O)N[C@H](CCCNC(=N)N)C(=O)N[C@@H](CCCCNC(=N)N)C(N)=O [AVR-104, PhAC-Ada-Tyr-DArg-Asp-Ala-Ile-Cpa-Thr-Ala-Arg-Tyr(Me)-Arg-Lys-Val-Leu-Abu-Gln-Leu-Ser-Ala-His-Orn-Leu-Leu-Gln-Asp-Ile-Nle-DArg-Har-NH2] ({PhAc-12Ado}-Y[dR]DAI[Phe(4-Cl)]TARY(Me)RKVL[Abu]QLSAH[Orn]LLQDI[Nle][dR][hArg]-NH2)","relative inhibitory potency in comparison to MIA-602, Breast MX-1",MX-1 breast cancer cells,1.310
same,"relative inhibitory potency in comparison to MIA-602, Urothelial J82",[1],3.377
same,"relative inhibitory potency in comparison to MIA-602, Stomach KATOIII",[2],1.321
same,"relative inhibitory potency in comparison to MIA-602, Prostatic PC3",[3],1.440
same,"relative inhibitory potency in comparison to MIA-602, Lung IICC827",HCC827 lung cancer cells,1.525
same,"relative inhibitory potency in comparison to MIA-602, Pancreatic CFPAC-1",[4],1.502
same,"relative inhibitory potency in comparison to MIA-602, Urothelial RT4",[5],1.697
same,"relative inhibitory potency in comparison to MIA-602, Pancreatic Panc-1",[6],1.114
same,"relative inhibitory potency in comparison to MIA-602, Stomach N87",[7],2.291
same,"relative inhibitory potency in comparison to MIA-602, Breast IICC1806",[8],1.220
same,IC50,[9],590 pM
